Values after ≈ are worked out from the molar mass of the structure shown.
system: Escherichia coli ATCC 25922; test: Minimal Inhibitory Concentration (MIC) determination, broth microdilution (CLSI M07-A10); format: cell-based; conditions: Escherichia coli, ATCC25922, read-out: Escherichia coli growth inhibition MIC, strain Escherichia coli ATCC 25922, 18-24 hours at 35±2° C., lowest concentration for complete growth inhibition (no visible growth)
Protocol: Minimal Inhibitory Concentration (MIC) Determination:
The MIC of antibacterial compounds against multiple species and strains was determined using the broth microdilution method according to M07-A10 Clinical and Laboratory Standards Institute (CLSI) guidelines, using the appropriate broth medium. In short, the compound plates were prepared by dispensing 100 μL of each stock solution in the first well of a 96 well microtiter plate (MTP) at a concentration 100-fold higher than the final concentration desired in broth. Eleven serial 2-fold dilutions of the highest concentration were made in DMSO for new compounds and in water (or appropriate solution) for reference compounds [2]. 1 μL of each well was transferred in a new MTP, which served as the test plate by subsequent inoculation. This bacterial suspension was prepared from strains that were first sub-cultured on agar plates and incubated for 18-24 hours as appropriate. Following incubation, the inoculum was prepared from isolated colonies and adjusted to 0.5 McFarland turbidity standard (1 to 2×10^8 Colony Forming Units (CFU)/mL) in 0.9% saline. The bacterial suspension was then diluted 1:200 in appropriate sterile medium and within 15 minutes 100 μL/well were dispensed. Negative controls (lack of bacterial cells) and growth control wells (lack of compound) were included in all plates. MTPs were incubated for 18-24 hours at 35±2° C. in ambient air. The MIC value of each compound, expressed as μg/mL, was determined as the lowest concentration required for complete growth inhibition (no visible growth). • [1] CLSI (2015) Methods for dilution antimicrobial susceptibility tests for bacteria that grow aerobically; Approved Standard, Tenth Edition. CLSI Document M7-A10 (ISBN 1-56238-987-4). Wayne, PA: Clinical and Laboratory Standards Institute, 19087, USA. • [2] CLSI (2017) Performance Standards for Antimicrobial Susceptibility Testing; Twenty-Fifth Informational Supplement. CLSI Document M100-S27, CLSI, Wayne, Pennsylvania 19087, USA.
Table 1 provides the Minimal Inhibitory Concentrations (MIC) in micrograms per millilitre of the compounds of present invention obtained against the strain Escherichia coli ATCC 25922.

Structure (SMILES) | MIC [µg/mL]
O=C1COc2ncc(N3CC4(CCN(CC5Cc6cc7nnn(C8CNC8)c7c(F)c6C5)CC4)OC3=O)nc2N1 (single isomer, unassigned) [Example 113, formic acid] | 0.125 (≈ 0.227 µM)

same assay, conditions: Escherichia coli, ATCC25922, strain Escherichia coli ATCC 25922, 18-24 hours at 35±2° C., lowest concentration for complete growth inhibition (no visible growth), read-out: Escherichia coli growth inhibition MIC

Structure (SMILES) | MIC [µg/mL]
O=C1COc2ncc(N3CC4(CCN(CC5Cc6cc7nc([C@H]8CCN8)oc7c(F)c6C5)CC4)OC3=O)nc2N1 (single isomer, unassigned) [Example 108] | 0.25 (≈ 0.455 µM)
O=C1COc2ncc(N3CC4(CCN(CC5Cc6cc7nn(C8CNC8)nc7c(F)c6C5)CC4)OC3=O)nc2N1 (single isomer, unassigned) [Example 109, 6-[2-oxo-8-[[2-(azetidin-3-yl)-8-fluoro-6,7-dihydro-5H-cyclopenta[f]benzotriazol-6-yl]methyl]-1-oxa-3,8-diazaspiro[4.5]decan-3-yl]-4H-pyrazino[2,3-b][1,4]oxazin-3-one] | 0.5 (≈ 0.91 µM)
O=C1COc2ccc(N3CC4(CCN(CC5Cc6cc7nc(C8CNC8)oc7c(F)c6C5)CC4)OC3=O)nc2N1 (single isomer, unassigned) [Example 111, 6-[8-[[2-(azetidin-3-yl)-8-fluoro-6,7-dihydro-5H-cyclopenta[f][1,3]benzoxazol-6-yl]methyl]-2-oxo-1-oxa-3,8-diazaspiro[4.5]decan-3-yl]-4H-pyrido[3,2-b][1,4]oxazin-3-one] | 0.5 (≈ 0.911 µM)
O=C1COc2ncc(N3CC4(CCN(CC5Cc6cc7nnn(C8CNC8)c7c(F)c6C5)CC4)OC3=O)nc2N1.O=CO (single isomer, unassigned) [Example 114] | 0.25
O=C1COc2ncc(N3CC4(CCN(CC5Cc6cc7c(nnn7C7CNC7)c(F)c6C5)CC4)OC3=O)nc2N1.O=CO (single isomer, unassigned) [Example 115, 6-[2-oxo-8-[[3-(azetidin-3-yl)-8-fluoro-6,7-dihydro-5H-cyclopenta[f]benzotriazol-6-yl]methyl]-1-oxa-3,8-diazaspiro[4.5]decan-3-yl]-4H-pyrazino[2,3-b][1,4]oxazin-3-one; formic acid] | 0.5
CNCCn1nnc2c(F)c3c(c(F)c21)CC(CN1CCC2(CC1)CN(c1cnc4c(n1)NC(=O)CO4)C(=O)O2)C3 (single isomer, unassigned) [Example 118, 6-[2-oxo-8-[[4,8-difluoro-1-[2-(methylamino)ethyl]-6,7-dihydro-5H-cyclopenta[f]benzotriazol-6-yl]methyl]-1-oxa-3,8-diazaspiro[4.5]decan-3-yl]-4H-pyrazino[2,3-b][1,4]oxazin-3-one] | 0.125 (≈ 0.219 µM)
O=C1COc2ncc(N3CC4(CCN(CC5Cc6c(c(F)c7c(nnn7C7CNC7)c6F)C5)CC4)OC3=O)nc2N1.O=CO (single isomer, unassigned) [Example 120, 6-[8-[[1-(azetidin-3-yl)-4,8-difluoro-6,7-dihydro-5H-cyclopenta[f]benzotriazol-6-yl]methyl]-2-oxo-1-oxa-3,8-diazaspiro[4.5]decan-3-yl]-4H-pyrazino[2,3-b][1,4]oxazin-3-one; formic acid] | 0.25
O=C1COc2ncc(N3CC4(CCN(CC5Cc6c(c(F)c7c(nnn7CCNC7CC7)c6F)C5)CC4)OC3=O)nc2N1.O=CO (single isomer, unassigned) [Example 124, 6-[8-[[1-[2-(Cyclopropylamino)ethyl]-4,8-difluoro-6,7-dihydro-5H-cyclopenta[f]benzotriazol-6-yl]methyl]-2-oxo-1-oxa-3,8-diazaspiro[4.5]decan-3-yl]-4H-pyrazino[2,3-b][1,4]oxazin-3-one;formic acid] | 0.5
CNCCn1cnc2c(F)c3c(c(F)c21)CC(CN1CCC2(CC1)CN(c1cnc4c(n1)NC(=O)CO4)C(=O)O2)C3 (single isomer, unassigned) [Example 126, 6-[2-oxo-8-[[4,8-difluoro-1-[2-(methylamino)ethyl]-6,7-dihydro-5H-cyclopenta[f]benzimidazol-6-yl]methyl]-1-oxa-3,8-diazaspiro[4.5]decan-3-yl]-4H-pyrazino[2,3-b][1,4]oxazin-3-one] | 0.25 (≈ 0.44 µM)
C[C@H](N)Cn1nnc2c(F)c3c(c(F)c21)CC(CN1CCC2(CC1)CN(c1cnc4c(n1)NC(=O)CO4)C(=O)O2)C3.Cl (single isomer, unassigned) [Example 130] | 0.25

same assay, conditions: strain Escherichia coli ATCC 25922, 18-24 hours at 35±2° C., lowest concentration for complete growth inhibition (no visible growth)

Structure (SMILES) | Escherichia coli growth inhibition MIC [µg/mL]
O=C1COc2ncc(N3CC4(CCN(CC5Cc6cc7nn(C8CNC8)nc7c(F)c6C5)CC4)OC3=O)nc2N1 (single isomer, unassigned) [Example 110, 6-[2-oxo-8-[[2-(azetidin-3-yl)-8-fluoro-6,7-dihydro-5H-cyclopenta[f]benzotriazol-6-yl]methyl]-1-oxa-3,8-diazaspiro[4.5]decan-3-yl]-4H-pyrazino[2,3-b][1,4]oxazin-3-one] | 1
O=C1COc2ccc(N3CC4(CCN(CC5Cc6cc7nc(C8CNC8)oc7c(F)c6C5)CC4)OC3=O)nc2N1 (single isomer, unassigned) [Example 112, 6-[8-[[2-(azetidin-3-yl)-8-fluoro-6,7-dihydro-5H-cyclopenta[f][1,3]benzoxazol-6-yl]methyl]-2-oxo-1-oxa-3,8-diazaspiro[4.5]decan-3-yl]-4H-pyrido[3,2-b][1,4]oxazin-3-one] | 0.5
CNCCn1nnc2c(F)c3c(c(F)c21)CC(CN1CCC2(CC1)CN(c1cnc4c(n1)NC(=O)CO4)C(=O)O2)C3 (single isomer, unassigned) [Example 119, 6-[2-oxo-8-[[4,8-difluoro-1-[2-(methylamino)ethyl]-6,7-dihydro-5H-cyclopenta[f]benzotriazol-6-yl]methyl]-1-oxa-3,8-diazaspiro[4.5]decan-3-yl]-4H-pyrazino[2,3-b][1,4]oxazin-3-one] | 0.125
O=C1COc2ncc(N3CC4(CCN(CC5Cc6c(c(F)c7c(nnn7CCNC7CC7)c6F)C5)CC4)OC3=O)nc2N1.O=CO (single isomer, unassigned) [Example 125, 6-[8-[[1-[2-(Cyclopropylamino)ethyl]-4,8-difluoro-6,7-dihydro-5H-cyclopenta[f]benzotriazol-6-yl]methyl]-2-oxo-1-oxa-3,8-diazaspiro[4.5]decan-3-yl]-4H-pyrazino[2,3-b][1,4]oxazin-3-one;formic acid] | 0.25
CNCCn1cnc2c(F)c3c(c(F)c21)CC(CN1CCC2(CC1)CN(c1cnc4c(n1)NC(=O)CO4)C(=O)O2)C3 (single isomer, unassigned) [Example 127] | 0.25

same assay, conditions: strain Escherichia coli ATCC 25922, 18-24 hours at 35±2° C., lowest concentration for complete growth inhibition (no visible growth), formic acid

Structure (SMILES) | Escherichia coli growth inhibition MIC [µg/mL]
O=C1COc2ncc(N3CC4(CCN(CC5Cc6cc7c(nnn7C7CNC7)c(F)c6C5)CC4)OC3=O)nc2N1.O=CO (single isomer, unassigned) [Example 116, 6-[2-oxo-8-[[3-(azetidin-3-yl)-8-fluoro-6,7-dihydro-5H-cyclopenta[f]benzotriazol-6-yl]methyl]-1-oxa-3,8-diazaspiro[4.5]decan-3-yl]-4H-pyrazino[2,3-b][1,4]oxazin-3-one; formic acid] | 0.25
O=C1COc2ncc(N3CC4(CCN(CC5Cc6c(c(F)c7c(nnn7C7CNC7)c6F)C5)CC4)OC3=O)nc2N1.O=CO (single isomer, unassigned) [Example 121, 6-[8-[[1-(azetidin-3-yl)-4,8-difluoro-6,7-dihydro-5H-cyclopenta[f]benzotriazol-6-yl]methyl]-2-oxo-1-oxa-3,8-diazaspiro[4.5]decan-3-yl]-4H-pyrazino[2,3-b][1,4]oxazin-3-one; formic acid] | 0.125
